Data as given in patent US11220524B2, “Selective inhibitors of protein arginine methyltransferase 5 (PRMT5)” (PRELUDE THERAPEUTICS, INCORPORATED, priority 2017, dated 2022).
pIC50: −log10 of the molar value. Where a name gives a salt, the structure may show the parent alone. Read-outs that look alike come from different tables or passages of the source.

Tests used:
[1] = target: PRMT5/MEP50 complex (Homo sapiens (Human), UniProt O14744); test: Biochemical assay: PRMT5/MEP50 methylation of histone H2A with 3H-SAM, filter plate scintillation
Sequence of PRMT5/MEP50 complex (O14744 whole entry): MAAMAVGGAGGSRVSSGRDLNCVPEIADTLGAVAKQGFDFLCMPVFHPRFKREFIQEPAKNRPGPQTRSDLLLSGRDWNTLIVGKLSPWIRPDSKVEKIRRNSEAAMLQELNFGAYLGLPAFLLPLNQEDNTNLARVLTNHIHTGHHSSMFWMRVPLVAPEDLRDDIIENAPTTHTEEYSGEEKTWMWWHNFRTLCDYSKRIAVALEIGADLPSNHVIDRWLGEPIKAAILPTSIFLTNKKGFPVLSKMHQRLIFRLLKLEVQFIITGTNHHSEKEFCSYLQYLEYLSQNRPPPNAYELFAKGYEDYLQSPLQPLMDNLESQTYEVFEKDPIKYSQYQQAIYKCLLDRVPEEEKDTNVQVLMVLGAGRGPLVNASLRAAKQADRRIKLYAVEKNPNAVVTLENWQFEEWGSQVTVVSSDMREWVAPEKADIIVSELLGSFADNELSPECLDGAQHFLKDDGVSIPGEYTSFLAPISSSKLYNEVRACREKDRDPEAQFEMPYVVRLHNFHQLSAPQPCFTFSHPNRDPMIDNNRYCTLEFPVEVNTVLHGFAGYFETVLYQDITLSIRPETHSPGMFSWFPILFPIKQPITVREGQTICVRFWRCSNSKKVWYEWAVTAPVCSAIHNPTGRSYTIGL
Sequence of PRMT5/MEP50 complex (Q9BQA1 whole entry partner): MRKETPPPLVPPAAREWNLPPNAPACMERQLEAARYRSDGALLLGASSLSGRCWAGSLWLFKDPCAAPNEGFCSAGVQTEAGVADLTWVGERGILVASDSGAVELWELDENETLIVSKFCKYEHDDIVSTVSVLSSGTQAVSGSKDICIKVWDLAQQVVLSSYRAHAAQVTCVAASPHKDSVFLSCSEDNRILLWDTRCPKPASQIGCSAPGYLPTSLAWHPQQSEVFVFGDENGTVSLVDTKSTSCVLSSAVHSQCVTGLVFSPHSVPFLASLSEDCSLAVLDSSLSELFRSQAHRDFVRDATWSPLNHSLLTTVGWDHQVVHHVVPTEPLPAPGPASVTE
Description: Biochemical Assay Protocol
Compounds were solubilized, and 3-fold diluted in 100% DMSO. […] Standard reactions were performed in a total volume of […] assay buffer, with histone H2A (5 μM final) as substrate. To this was added the PRMT5/MEP50 complex diluted to provide a final assay concentration of 5 nM and the compounds were allowed to preincubate for 15 to 20 minutes at room temperature. The reaction was initiated by adding S-[3H-methyl]-adenosyl-L-methionine (PerkinElmer) to final concentration of 1 μM. Following a 60 minutes incubation at 30° C., the reaction was stopped by adding 100 μL of 20% TCA. Each reaction was spotted onto filter plate (MultiScreen FB Filter Plate, Millipore), and washed 5 times with PBS buffer, Scintillation fluid was added to the filter plate and read in a scintillation counter. IC50 values were determined by fitting the data to the standard 4 parameters with Hill Slope using GraphPad Prism software.

[2] = system: Symmetric Di-Methyl Arginine (sDMA) in Granta-519 cells; test: Western blot for symmetric di-methyl arginine (sDMA) marks in Granta cells, 3 days treatment; type: cell-based; details: Homo sapiens; for pIC50: 3 days; for inhibition at 1 µM: Granta-519
Description: Cell Treatment and Western Blotting for Detecting Symmetric Di-Methyl Arginine (sDMA) and Histone H3R8 Dimethyl Symmetric (H3R8me2s) Marks
Initial compounds screening in A549 cells: Compounds were dissolved in DMSO to make 10 mM stock and further diluted to 0.1, and 1 mM. A549 cells were maintained in PRMI 1640 (Corning Cellgro, Catalog #: 10-040-CV) medium supplemented with 10% v/v FBS (GE Healthcare, Catalog #: SH30910.03). One day before experiment, 1.25×10^5 cells were seeded in 6 well plate in 3 mL medium and incubated overnight. The next day, medium was changed and 3 uL of compound solution was added (1:1,000 dilution, 0.1 and 1 uM final concentration; DMSO concentration: 0.1%), and incubated for 3 days. Cells incubated with DMSO was used as a vehicle control. Cells were washed once with PBS, trypsinized in 150 uL 0.25% Trypsin (Corning, Catalog #: 25-053-CI), neutralized with 1 mL complete medium, transferred to microcentrifuge tubes and collected. Cell pellet was then resuspended in 15 uL PBS, lysed in 4% SDS, and homogenized by passing through homogenizer column (Omega Biotek, Catalog #: HCR003). Total protein concentrations were determined by BCA assay (ThermoFisher Scientific, Catalog #: 23225). Lysates were mixed with 5× Laemmli buffer and boiled for 5 min. Forty ug of total protein was separated on SDS-PAGE gels (Bio-Rad, catalog #: 4568083, 4568043), transferred to PVDF membrane, blocked with 5% dry milk (Bio-Rad, Catalog #: 1706404) in TBS with 0.1% v/v Tween 20 (TBST) for 1 hour at room temperature (RT), and incubated with primary antibodies (sDMA: Cell signaling, Catalog #: 13222, 1:3,000; H3R8me2s: Epigentek, Catalog #: A-3706-100, 1:2,000; β-Actin: Abcam, Catalog #: ab8227, 1:10,000) in 5% dry milk in TBST at 4° C. for overnight. The next day, membranes were washed with TBST, 5×5 min, and incubated withhP conjugated seconded antibody (GE Healthcare; Catalog #: NA934-1ML; 1:5,000) for 2 hours at RT, followed by 5×5 min washes with TBST, and incubation with ECL substrates (Bio-Rad, Catalog #: 1705061, 1705062). Chemiluminescent signal was captured with FluoChem HD2 imager (Proteinsimple) and analyzed by ImageJ.
Cells incubated with DMSO was used as a vehicle control. Cells were harvested and subjected to western blot analysis as described above. SmD3me2s and H3R8me2s bands were quantified by ImageJ. Signals were normalized to β-Actin and DMSO control. IC50 values were calculated using Graphpad Prism.

[3] = biochemical potency, read-out: PRTMT5/MEP50 IC50
[4] = Granta-519, 72 h, Granta cell line
[5] = histone H2A 5 μM, SAM 1 μM, enzyme 5 nM, read-out: PRMT5/MEP50 IC50

pIC50 [1, 3] | pIC50 [2, 4] | pIC50 [1, 5] | pIC50 ([2]; 72 h, Granta-519 cell line) | Compound | inhibition at 1 µM [2]
9.05 | 8.15 | – | – | C[C@@](O)(c1ccc(Cl)s1)[C@H]1O[C@@H](n2ccc3c(N)ncnc32)[C@H](O)[C@@H]1O [Example 21-C, (2R,3R,4S,5S)-2-(4-amino-7H-pyrrolo[2,3-d]pyrimidin-7-yl)-5-((S)-1-(5-chlorothiophen-2-yl)-1-hydroxyethyl)tetrahydrofuran-3,4-diol] | –
7.33 | ~5.52 | – | – | N/N=c1/nc[nH]c2c1ccn2[C@@H]1C[C@H]([C@H](O)c2ccc(Cl)cc2)[C@@H](O)[C@H]1O [Example 25-B, 7-[(1R,2S,3R,4R)-4-[(S)-(4-chlorophenyl)-hydroxy-methyl]-2,3-dihydroxy-cyclopentyl]-1H-pyrrolo[2,3-d]pyrimidin-4-one hydrazone hydrochloride] | –
8.20 | 4.00 | – | – | N/N=c1/nc[nH]c2c1ccn2[C@@H]1C[C@H]([C@H](O)c2ccc(F)c(F)c2)[C@@H](O)[C@H]1O [Example 37-B, 7-[(1R,2S,3R,4R)-4-[(S)-(3,4-difluorophenyl)-hydroxy-methyl]-2,3-dihydroxy-cyclopentyl]-1H-pyrrolo[2,3-d]pyrimidin-4-one hydrazone hydrochloride] | –
7.93 | ~6.22 | – | – | O/N=c1/nc[nH]c2c1ccn2[C@@H]1C[C@H]([C@H](O)c2ccc(Cl)cc2)[C@@H](O)[C@H]1O [Example 50-B, 7-[(1R,2S,3R,4R)-4-[(S)-(4-chlorophenyl)-hydroxy-methyl]-2,3-dihydroxy-cyclopentyl]-1H-pyrrolo[2,3-d]pyrimidin-4-one oxime hydrochloride] | –
8.09 | 7.01 | – | – | CN(N)c1ncnc2c1ccn2[C@@H]1C[C@H](CCc2ccc3ccc(NCC4CC4)nc3c2)[C@@H](O)[C@H]1O [Example 79-B, (1S,2R,3S,5R)-3-(2-(2-((cyclopropylmethyl)amino)quinolin-7-yl)ethyl)-5-(4-(1-methylhydrazineyl)-7H-pyrrolo[2,3-d]pyrimidin-7-yl)cyclopentane-1,2-diol] | –
8.57 | 7.80 | – | – | CNc1ccc2ccc(CC[C@H]3C[C@@H](n4ccc5/c(=N/OC)nc[nH]c54)[C@H](O)[C@@H]3O)cc2n1 [Example 84-B, 7-((1R,2S,3R,4S)-2,3-dihydroxy-4-(2-(2-(methylamino)quinolin-7-yl)ethyl)cyclopentyl)-1,7-dihydro-4H-pyrrolo[2,3-d]pyrimidin-4-one O-methyl oxime] | –
9.70 | 8.52 | – | – | CO/N=c1\nc[nH]c2c1ccn2[C@@H]1C[C@H](CCc2ccc3cc(Cl)c(N)nc3c2)[C@@H](O)[C@H]1O [Example 86-B, (Z)-7-((1R,2S,3R,4S)-4-(2-(2-amino-3-chloroquinolin-7-yl)ethyl)-2,3-dihydroxycyclopentyl)-3,7-dihydro-4H-pyrrolo[2,3-d]pyrimidin-4-one O-methyl oxime] | –
9.48 | 8.77 | – | – | O/N=c1\nc[nH]c2c1ccn2[C@@H]1C[C@H](CCc2ccc3ccc(NCC4CC4)nc3c2)[C@@H](O)[C@H]1O [Example 87-B, 7-((1R,2S,3R,4S)-4-(2-(2-((cyclopropylmethyl)amino)quinolin-7-yl)ethyl)-2,3-dihydroxycyclopentyl)-1,7-dihydro-4H-pyrrolo[2,3-d]pyrimidin-4-one oxime] | –
8.49 | 7.33 | – | – | CN/N=c1\nc[nH]c2c1ccn2[C@@H]1C[C@H](CCc2ccc3ccc(NCC4CC4)nc3c2)[C@@H](O)[C@H]1O [Example 91-B, (1S,2R,3S,5R)-3-(2-(2-((cyclopropylmethyl)amino)quinolin-7-yl)ethyl)-5-((Z)-4-(2-methylhydrazineylidene)-1,4-dihydro-7H-pyrrolo[2,3-d]pyrimidin-7-yl)cyclopentane-1,2-diol] | –
7.70 | 6.47 | – | – | CO/N=c1\nc[nH]c2c1ccn2[C@@H]1C[C@H]([C@H](O)c2ccc(Cl)c(Cl)c2)[C@@H](O)[C@H]1O [Example 92-B, 7-((1R,2S,3R,4R)-4-((S)-(3,4-dichlorophenyl)(hydroxy)methyl)-2,3-dihydroxycyclopentyl)-1,7-dihydro-4H-pyrrolo[2,3-d]pyrimidin-4-one O-methyl oxime] | –
8.47 | 7.28 | – | – | C[C@@](O)(c1ccc(Cl)c(Cl)c1)[C@H]1C[C@@H](n2ccc3/c(=N\O)nc[nH]c32)[C@H](O)[C@@H]1O [Example 94-B, 7-((1R,2S,3R,4S)-4-((S)-1-(3,4-dichlorophenyl)-1-hydroxyethyl)-2,3-dihydroxycyclopentyl)-1,7-dihydro-4H-pyrrolo[2,3-d]pyrimidin-4-one oxime] | –
– | – | 8.08 | 8.05 | CO/N=c1\nc[nH]c2c1ccn2[C@@H]1O[C@H]([C@H](O)c2ccc(C(F)(F)F)c(C)c2)[C@@H](O)[C@H]1O [Example 98, 7-((2R,3R,4S,5R)-3,4-dihydroxy-5-((R)-hydroxy(3-methyl-4-(trifluoromethyl)phenyl)methyl)tetrahydrofuran-2-yl)-1,7-dihydro-4H-pyrrolo[2,3-d]pyrimidin-4-one O-methyl oxime] | –
– | – | 6.36 | 5.47 | CO/N=c1\nc[nH]c2c1ccn2[C@@H]1O[C@H]([C@H](OC)c2ccc(Cl)c(F)c2)[C@@H](O)[C@H]1O [Example 102, 7-((2R,3R,4S,5S)-5-((R)-(4-chloro-3-fluorophenyl)(methoxy)methyl)-3,4-dihydroxytetrahydrofuran-2-yl)-1,7-dihydro-4H-pyrrolo[2,3-d]pyrimidin-4-one O-methyl oxime] | –
– | – | 6.73 | – | CN/N=c1/nc[nH]c2c1ncn2[C@@H]1O[C@H]([C@H](O)c2ccc(Cl)cc2)[C@@H](O)[C@H]1O [compound 52, (2R,3S,4R,5R)-2-[(R)-(4-chlorophenyl)-hydroxy-methyl]-5-[6-(methylhydrazono)-3H-purin-9-yl]tetrahydrofuran-3,4-diol; 2,2,2-trifluoroacetic Acid] | 39%
– | – | 7.59 | – | O/N=c1/nc[nH]c2c1ncn2[C@@H]1O[C@H]([C@H](O)c2ccc(Cl)cc2)[C@@H](O)[C@H]1O [compound 54, 9-[(2R,3R,4S,5R)-5-[(R)-(4-chlorophenyl)-hydroxy-methyl]-3,4-dihydroxy-tetrahydrofuran-2-yl]-3H-purin-6-one oxime trifluoroacetic Acid Salt] | 55%
– | – | 8.55 | 7.35 | C[C@@](O)(c1ccc(Cl)cc1)[C@H]1O[C@@H](n2ccc3/c(=N/O)nc[nH]c32)[C@H](O)[C@@H]1O [compound 59, 7-((2R,3R,4S)-5-((R)-1-(4-chlorophenyl)-1-hydroxyethyl)-3,4-dihydroxytetrahydrofuran-2-yl)-1,7-dihydro-4H-pyrrolo[2,3-d]pyrimidin-4-one oxime hydrochloride] | –
– | – | 7.42 | 6.36 | CO/N=c1\nc[nH]c2c1ccn2[C@@H]1O[C@H]([C@](C)(O)c2ccc(Cl)cc2)[C@@H](O)[C@H]1O [compound 60, 7-((2R,3R,4S)-5-((R)-1-(4-chlorophenyl)-1-hydroxyethyl)-3,4-dihydroxytetrahydrofuran-2-yl)-1,7-dihydro-4H-pyrrolo[2,3-d]pyrimidin-4-one O-methyl oxime] | –

Compound | pIC50 [1, 3] | pIC50 [2, 4] | pIC50 [1, 5] | pIC50 ([2]; 72 h, Granta-519 cell line) | inhibition at 1 µM [2]
CO/N=c1\nc[nH]c2c1ccn2[C@@H]1C[C@H](CCc2ccc3ccc(N)nc3c2)[C@@H](O)[C@H]1O [Example 85-B, 7-((1R,2S,3R,4S)-4-(2-(2-aminoquinolin-7-yl)ethyl)-2,3-dihydroxycyclopentyl)-1,7-dihydro-4H-pyrrolo[2,3-d]pyrimidin-4-one O-methyl oxime] | 9.19 | 9.05 | – | – | –
